In ChEMBL document CHEMBL1126500, “Kinase bypass: A new strategy for anti-HIV drug design” (Bioorg Med Chem Lett, 1993):

How the values were obtained:
C8166 = assay: Compound was tested for its ability to inhibit the replication of HIV-1 in C8166 T-cells; format: functional; details: Homo sapiens, read-out: ED50 (the source's name)
[1] = Toxic dose required to inhibit the replication of HIV-1 in C8166 T-cells; format: ADME, cell-based; details: human, read-out: TD50 (the source's name)

EC50 (C8166) [µM]	Structure (SMILES)	CC50 [1] [µM]
0.01	Cc1cn([C@H]2C[C@H](N=[N+]=[N-])[C@@H](CO)O2)c(=O)[nH]c1=O [ZIDOVUDINE]	> 200
100	Cc1cn([C@H]2C[C@H](OC=O)[C@@H](COP(=O)(OCC(Cl)(Cl)Cl)OCC(Cl)(Cl)Cl)O2)c(=O)[nH]c1=O	> 200
> 200	CC(=O)O[C@H]1C[C@H](n2cc(C)c(=O)[nH]c2=O)O[C@@H]1CO	> 200
75	CCCC(=O)O[C@H]1C[C@H](n2cc(C)c(=O)[nH]c2=O)O[C@@H]1COP(=O)(OCC(Cl)(Cl)Cl)OCC(Cl)(Cl)Cl	80
30	CC(=O)O[C@H]1C[C@H](n2cc(C)c(=O)[nH]c2=O)O[C@@H]1COP(=O)(OCC(Cl)(Cl)Cl)OCC(Cl)(Cl)Cl	> 200

Continued, compound first:

Structure (SMILES)	EC50 (C8166) [µM]	CC50 [1] [µM]
Cc1cn([C@H]2C[C@H](OC(=O)CCl)[C@@H](COP(=O)(OCC(Cl)(Cl)Cl)OCC(Cl)(Cl)Cl)O2)c(=O)[nH]c1=O	50	50
Cc1cn([C@H]2C[C@H](OC(=O)C(Cl)(Cl)Cl)[C@@H](COP(=O)(OCC(Cl)(Cl)Cl)OCC(Cl)(Cl)Cl)O2)c(=O)[nH]c1=O	50	> 200
CCC(=O)O[C@H]1C[C@H](n2cc(C)c(=O)[nH]c2=O)O[C@@H]1COP(=O)(OCC(Cl)(Cl)Cl)OCC(Cl)(Cl)Cl	35	80
Cc1cn([C@H]2C[C@H](OC(=O)C(C)C)[C@@H](COP(=O)(OCC(Cl)(Cl)Cl)OCC(Cl)(Cl)Cl)O2)c(=O)[nH]c1=O	40	> 200
